Measured values taken from patent publication US5840684A, “Glycopeptide antibiotic derivatives” (Eli Lilly and Company, priority 1995, dated 1998).
In brackets after ≈: the same amount, converted by molar mass.

Key:
[1] = tested on: Staphylococcus epidermidis 270; assay: broth micro-dilution MIC; assay type: cell-based
Method: (§1) The formula I compounds have in vitro and in vivo activity against Gram-positive pathogenic bacteria. The MIC's were determined using a standard broth micro-dilution assay.

[2] = tested on: Staphylococcus haemolyticus 105; assay: broth micro-dilution MIC; assay type: cell-based
Method: as §1

Entercoccus faecium 180 = assay: broth micro-dilution MIC; assay type: cell-based; conditions: Entercoccus faecium 180
Method: as §1

[3] = tested on: Streptococcus pneumoniae P1; assay: broth micro-dilution MIC; assay type: cell-based
Method: as §1

[4] = tested on: Staphylococcus haemolyticus 415; assay: broth micro-dilution MIC; assay type: cell-based
Method: as §1

[5] = tested on: Enterococcus gallinarum 245; assay: broth micro-dilution MIC; assay type: cell-based; conditions: Enterococcus gallinarum 245
Method: as §1

[6] = tested on: Haemophilus influenzae RD; assay: broth micro-dilution MIC; assay type: cell-based; conditions: Haemophilus influenzae RD
Method: as §1

Entercoccus faecium 2041 = assay: broth micro-dilution MIC; assay type: cell-based; conditions: Entercoccus faecium 2041
Method: as §1

[7] = tested on: vancomycin-susceptible enterococci; assay: broth micro-dilution, mean geometric MIC; assay type: cell-based, Enterococcus faecium and Enterococcus faecalis; conditions: enterococci, 24-hour incubation
[8] = tested on: Staphylococcus aureus S13E; assay type: cell-based
Method: (§2) The MIC's were determined using a standard broth micro-dilution assay.

[9] = tested on: Staphylococcus aureus SA1199B; assay type: cell-based
Method: as §2

[10] = tested on: Staphylococcus aureus 446; assay: broth micro-dilution MIC; assay type: cell-based
Method: as §2

[11] = tested on: Streptococcus pyogenes C203; assay: broth micro-dilution MIC; assay type: cell-based
Method: as §2

[12] = tested on: Staphylococcus aureus 447; assay: broth micro-dilution MIC; assay type: cell-based
Method: as §2

[13] = tested on: Entercoccus faecium 180-1; assay: broth micro-dilution MIC; assay type: cell-based
Method: as §2

Entercoccus faecium 276 = assay: broth micro-dilution MIC; assay type: cell-based
Method: as §2

[14] = tested on: Staphylococcus aureus 491; assay: broth micro-dilution MIC; assay type: cell-based
Method: as §2

[15] = tested on: Staphylococcus aureus SA1199A; assay: broth micro-dilution MIC; assay type: cell-based
Method: as §2

[16] = tested on: Staphylococcus aureus SA1199; assay: broth micro-dilution MIC; assay type: cell-based
Method: as §2

[17] = tested on: vancomycin-resistant enterococci; assay: broth micro-dilution, mean geometric MIC; assay type: cell-based, Enterococcus faecium and Enterococcus faecalis; conditions: enterococci, 24-hour incubation
[18] = tested on: Staphylococcus aureus 489; assay: broth micro-dilution MIC; assay type: cell-based
Method: as §2

[19] = tested on: Staphylococcus aureus X778; assay: broth micro-dilution MIC; assay type: cell-based
Method: as §2

[20] = tested on: Staphylococcus aureus X400; assay: broth micro-dilution MIC; assay type: cell-based
Method: as §2

| Structure (SMILES) | MIC [2] | MIC (Entercoccus faecium 180) | MIC [3] | MIC [4] | MIC [5] | MIC [6] | MIC (Entercoccus faecium 2041) | mean geometric MIC, Vancomycin Sensitive Strains [7] | MIC [8] | MIC [9] | MIC [10] | MIC [11] | MIC [12] | MIC [13] | MIC (Entercoccus faecium 276) | MIC [14] | MIC [15] | MIC [16] | mean geometric MIC, Vancomycin Resistant Strains [17] | MIC [18] | other results |
| --- | --- | --- | --- | --- | --- | --- | --- | --- | --- | --- | --- | --- | --- | --- | --- | --- | --- | --- | --- | --- | --- |
| CNC(CC(C)C)C(=O)NC1C(=O)NC(CC(N)=O)C(=O)NC2C(=O)NC3C(=O)NC(C(=O)NC(C(=O)O)c4cc(O)cc(O)c4-c4cc3ccc4O)C(OC3CC(C)(N)C(O)C(C)O3)c3ccc(c(Cl)c3)Oc3cc2cc(c3OC2OC(CO)C(O)C(O)C2OC2CC(C)(NCc3cc4ccccc4s3)C(O)C(C)O2)Oc2ccc(cc2Cl)C1O (stereo not shown) [Compound 19] | 4 µg/mL (≈ 2.3 µM) | 1 µg/mL (≈ 0.575 µM) | ≤ 0.06 µg/mL | 8 µg/mL (≈ 4.6 µM) | ≤ 0.06 µg/mL | 32 µg/mL (≈ 18.4 µM) | ≤ 0.06 µg/mL | 0.22 µg/mL | ≤ 0.06 µg/mL | 1 µg/mL (≈ 0.575 µM) | 0.5 µg/mL (≈ 0.288 µM) | ≤ 0.06 µg/mL | 1 µg/mL (≈ 0.575 µM) | ≤ 0.06 µg/mL | ≤ 0.06 µg/mL | 2 µg/mL (≈ 1.15 µM) | ≤ 0.06 µg/mL | 0.5 µg/mL (≈ 0.288 µM) | – | – | MIC [1]: 2 µg/mL (≈ 1.15 µM) |
| CNC(CC(C)C)C(=O)NC1C(=O)NC(CC(N)=O)C(=O)NC2C(=O)NC3C(=O)NC(C(=O)NC(C(=O)O)c4cc(O)cc(O)c4-c4cc3ccc4O)C(OC3CC(C)(N)C(O)C(C)O3)c3ccc(c(Cl)c3)Oc3cc2cc(c3OC2OC(CO)C(O)C(O)C2OC2CC(C)(NCc3ccc(C#Cc4ccccc4)cc3)C(O)C(C)O2)Oc2ccc(cc2Cl)C1O (stereo not shown) [Compound 79] | 4 µg/mL (≈ 2.24 µM) | ≤ 0.06 µg/mL | ≤ 0.06 µg/mL | 4 µg/mL (≈ 2.24 µM) | ≤ 0.06 µg/mL | 16 µg/mL (≈ 8.98 µM) | ≤ 0.06 µg/mL | 0.042 µg/mL | 4 µg/mL (≈ 2.24 µM) | 1 µg/mL (≈ 0.561 µM) | 2 µg/mL (≈ 1.12 µM) | ≤ 0.06 µg/mL | 2 µg/mL (≈ 1.12 µM) | ≤ 0.06 µg/mL | ≤ 0.06 µg/mL | 4 µg/mL (≈ 2.24 µM) | – | 1 µg/mL (≈ 0.561 µM) | 0.84 µg/mL | 2 µg/mL (≈ 1.12 µM) | MIC [1]: 0.5 µg/mL (≈ 0.28 µM); MIC [19]: 2 µg/mL (≈ 1.12 µM) |
| CNC(CC(C)C)C(=O)NC1C(=O)NC(CC(N)=O)C(=O)NC2C(=O)NC3C(=O)NC(C(=O)NC(C(=O)O)c4cc(O)cc(O)c4-c4cc3ccc4O)C(OC3CC(C)(N)C(O)C(C)O3)c3ccc(c(Cl)c3)Oc3cc2cc(c3OC2OC(CO)C(O)C(O)C2OC2CC(C)(NCCCc3ccc(OC)cc3)C(O)C(C)O2)Oc2ccc(cc2Cl)C1O (stereo not shown) [Compound 175] | 2 µg/mL (≈ 1.15 µM) | 1 µg/mL (≈ 0.574 µM) | 0.5 µg/mL (≈ 0.287 µM) | 4 µg/mL (≈ 2.3 µM) | 4 µg/mL (≈ 2.3 µM) | 16 µg/mL (≈ 9.19 µM) | ≤ 0.06 µg/mL | 0.22 µg/mL | – | ≤ 0.06 µg/mL | 1 µg/mL (≈ 0.574 µM) | 0.5 µg/mL (≈ 0.287 µM) | 1 µg/mL (≈ 0.574 µM) | ≤ 0.06 µg/mL | ≤ 0.06 µg/mL | 0.5 µg/mL (≈ 0.287 µM) | 0.5 µg/mL (≈ 0.287 µM) | ≤ 0.06 µg/mL | 9.5 µg/mL | – | MIC [1]: 0.5 µg/mL (≈ 0.287 µM); MIC [19]: 0.5 µg/mL (≈ 0.287 µM) |
| CNC(CC(C)C)C(=O)NC1C(=O)NC(CC(N)=O)C(=O)NC2C(=O)NC3C(=O)NC(C(=O)NC(C(=O)O)c4cc(O)cc(O)c4-c4cc3ccc4O)C(OC3CC(C)(N)C(O)C(C)O3)c3ccc(c(Cl)c3)Oc3cc2cc(c3OC2OC(CO)C(O)C(O)C2OC2CC(C)(NCc3ccc4cc(C)ccc4c3)C(O)C(C)O2)Oc2ccc(cc2Cl)C1O (stereo not shown) [Compound 189] | 1 µg/mL (≈ 0.573 µM) | – | ≤ 0.06 µg/mL | 1 µg/mL (≈ 0.573 µM) | 1 µg/mL (≈ 0.573 µM) | 32 µg/mL (≈ 18.3 µM) | ≤ 0.06 µg/mL | 0.10 µg/mL | 0.5 µg/mL (≈ 0.286 µM) | 1 µg/mL (≈ 0.573 µM) | 0.5 µg/mL (≈ 0.286 µM) | ≤ 0.06 µg/mL | 0.5 µg/mL (≈ 0.286 µM) | ≤ 0.06 µg/mL | – | ≤ 0.06 µg/mL | ≤ 0.06 µg/mL | 0.5 µg/mL (≈ 0.286 µM) | 2.4 µg/mL | 1 µg/mL (≈ 0.573 µM) | – |
| CNC(CC(C)C)C(=O)NC1C(=O)NC(CC(N)=O)C(=O)NC2C(=O)NC3C(=O)NC(C(=O)NC(C(=O)O)c4cc(O)cc(O)c4-c4cc3ccc4O)C(OC3CC(C)(N)C(O)C(C)O3)c3ccc(c(Cl)c3)Oc3cc2cc(c3OC2OC(CO)C(O)C(O)C2OC2CC(C)(NCCCCC3CCCCC3)C(O)C(C)O2)Oc2ccc(cc2Cl)C1O (stereo not shown) [Compound 205] | 1 µg/mL (≈ 0.578 µM) | 0.5 µg/mL (≈ 0.289 µM) | ≤ 0.06 µg/mL | 1 µg/mL (≈ 0.578 µM) | 1 µg/mL (≈ 0.578 µM) | 16 µg/mL (≈ 9.24 µM) | 0.25 µg/mL (≈ 0.144 µM) | 0.036 µg/mL | 0.5 µg/mL (≈ 0.289 µM) | 0.5 µg/mL (≈ 0.289 µM) | 2 µg/mL (≈ 1.16 µM) | ≤ 0.06 µg/mL | 0.5 µg/mL (≈ 0.289 µM) | ≤ 0.06 µg/mL | 0.5 µg/mL (≈ 0.289 µM) | 0.5 µg/mL (≈ 0.289 µM) | ≤ 0.06 µg/mL | 1 µg/mL (≈ 0.578 µM) | 1 µg/mL | 0.5 µg/mL (≈ 0.289 µM) | MIC [20]: 0.5 µg/mL (≈ 0.289 µM); MIC [19]: 0.5 µg/mL (≈ 0.289 µM) |
| CNC(CC(C)C)C(=O)NC1C(=O)NC(CC(N)=O)C(=O)NC2C(=O)NC3C(=O)NC(C(=O)NC(C(=O)O)c4cc(O)cc(O)c4-c4cc3ccc4O)C(OC3CC(C)(N)C(O)C(C)O3)c3ccc(c(Cl)c3)Oc3cc2cc(c3OC2OC(CO)C(O)C(O)C2OC2CC(C)(NCCCC3CCCC3)C(O)C(C)O2)Oc2ccc(cc2Cl)C1O (stereo not shown) [Compound 208] | – | – | ≤ 0.06 µg/mL | 2 µg/mL (≈ 1.17 µM) | 2 µg/mL (≈ 1.17 µM) | 32 µg/mL (≈ 18.8 µM) | ≤ 0.06 µg/mL | 0.17 µg/mL | – | 0.5 µg/mL (≈ 0.294 µM) | 1 µg/mL (≈ 0.587 µM) | ≤ 0.06 µg/mL | 1 µg/mL (≈ 0.587 µM) | ≤ 0.06 µg/mL | – | 0.5 µg/mL (≈ 0.294 µM) | ≤ 0.06 µg/mL | 0.5 µg/mL (≈ 0.294 µM) | 2.8 µg/mL | 0.5 µg/mL (≈ 0.294 µM) | MIC [1]: 0.5 µg/mL (≈ 0.294 µM) |
| CNC(CC(C)C)C(=O)NC1C(=O)NC(CC(N)=O)C(=O)NC2C(=O)NC3C(=O)NC(C(=O)NC(C(=O)O)c4cc(O)cc(O)c4-c4cc3ccc4O)C(OC3CC(C)(N)C(O)C(C)O3)c3ccc(c(Cl)c3)Oc3cc2cc(c3OC2OC(CO)C(O)C(O)C2OC2CC(C)(NCc3ccc(-c4ccc(C#N)cc4)cc3)C(O)C(C)O2)Oc2ccc(cc2Cl)C1O (stereo not shown) [Compound 231] | ≤ 0.06 µg/mL | ≤ 0.06 µg/mL | ≤ 0.06 µg/mL | 0.5 µg/mL (≈ 0.28 µM) | 0.5 µg/mL (≈ 0.28 µM) | 32 µg/mL (≈ 17.9 µM) | ≤ 0.06 µg/mL | 0.11 µg/mL | ≤ 0.06 µg/mL | ≤ 0.06 µg/mL | – | ≤ 0.06 µg/mL | – | ≤ 0.06 µg/mL | ≤ 0.06 µg/mL | ≤ 0.06 µg/mL | ≤ 0.06 µg/mL | ≤ 0.06 µg/mL | 1.7 µg/mL | ≤ 0.06 µg/mL | MIC [20]: ≤ 0.06 µg/mL; MIC [19]: ≤ 0.06 µg/mL |
| CNC(CC(C)C)C(=O)NC1C(=O)NC(CC(N)=O)C(=O)NC2C(=O)NC3C(=O)NC(C(=O)NC(C(=O)O)c4cc(O)cc(O)c4-c4cc3ccc4O)C(OC3CC(C)(N)C(O)C(C)O3)c3ccc(c(Cl)c3)Oc3cc2cc(c3OC2OC(CO)C(O)C(O)C2OC2CC(C)(NCCCCC#Cc3ccccc3)C(O)C(C)O2)Oc2ccc(cc2Cl)C1O (stereo not shown) [Compound 235] | 0.5 µg/mL (≈ 0.286 µM) | 0.5 µg/mL (≈ 0.286 µM) | ≤ 0.06 µg/mL | 1 µg/mL (≈ 0.572 µM) | 1 µg/mL (≈ 0.572 µM) | 8 µg/mL (≈ 4.57 µM) | ≤ 0.06 µg/mL | – | 0.125 µg/mL (≈ 0.0715 µM) | 0.5 µg/mL (≈ 0.286 µM) | 0.5 µg/mL (≈ 0.286 µM) | ≤ 0.06 µg/mL | – | ≤ 0.06 µg/mL | 0.125 µg/mL (≈ 0.0715 µM) | 0.125 µg/mL (≈ 0.0715 µM) | ≤ 0.06 µg/mL | – | 2.4 µg/mL | 0.5 µg/mL (≈ 0.286 µM) | MIC [1]: 0.5 µg/mL (≈ 0.286 µM); MIC [20]: 0.125 µg/mL (≈ 0.0715 µM); MIC [19]: 0.5 µg/mL (≈ 0.286 µM) |
